Assay [1] concerns the target T1, hASBT (Homo sapiens, UniProt Q12908).
T1 sequence (Q12908 1-348): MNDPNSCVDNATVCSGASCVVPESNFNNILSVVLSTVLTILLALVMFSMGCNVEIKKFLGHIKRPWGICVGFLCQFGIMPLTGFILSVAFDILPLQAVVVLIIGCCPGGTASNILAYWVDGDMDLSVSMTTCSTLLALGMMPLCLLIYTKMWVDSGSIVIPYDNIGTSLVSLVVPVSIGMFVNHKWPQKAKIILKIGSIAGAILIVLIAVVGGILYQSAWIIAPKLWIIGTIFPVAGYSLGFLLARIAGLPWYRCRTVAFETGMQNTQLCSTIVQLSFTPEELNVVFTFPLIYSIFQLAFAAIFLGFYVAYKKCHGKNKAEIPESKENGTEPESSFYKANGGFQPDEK
The assay is described as follows: Inhibition of taurocholate uptake in hASBT-MDCK monolayers. The class given is cell-based. The settings on record: for fold more potent than 33: ratio of Ki relative to 33.

The target of assay [2] is T1, hASBT. The settings on record: previously reported; cited from earlier work.

Consider `CC(CCC(=O)NC(CCC(=O)Nc1cccc(C(=O)O)c1)C(=O)OOCc1ccccc1)C1CCC2C3C(O)CC4CC(O)CCC4(C)C3CCC12C` (centres unmarked) [Compound 30], for which, in assay [1] (inhibition of taurocholate uptake), the “hASBT inhibition potency” value is “potent inhibitor”.
Regarding `C[C@H](CCC(=O)N[C@@H](CCC(=O)Nc1ccccc1C(=O)O)C(=O)O)[C@H]1CC[C@H]2[C@@H]3[C@H](O)C[C@H]4C[C@H](O)CC[C@]4(C)[C@H]3CC[C@]12C` [Compound 31], in assay [1], the “fold more potent than 33” value is “over 2 fold”.
As for `C[C@H](CCC(=O)N[C@@H](CCC(=O)Nc1cccc(C(=O)O)c1)C(=O)O)[C@H]1CC[C@H]2[C@@H]3[C@H](O)C[C@H]4C[C@H](O)CC[C@]4(C)[C@H]3CC[C@]12C` [Compound 32], the “Affinity (switch on or off)” value in assay [1] (observed affinity of dianions, molecular switch state) was “High (on)”. For the same compound, the “fold more potent than 33” value in assay [1] is “over 2 fold”.
In the case of `C[C@H](CCC(=O)N[C@@H](CCC(=O)O)C(=O)O)[C@H]1CC[C@H]2[C@@H]3[C@H](O)C[C@@H]4C[C@H](O)CC[C@]4(C)[C@H]3CC[C@]12C` [glu-CDCA, Glutamic acid CDCA amide], the “hASBT activity” value in assay [2] is given as “poor activity”.
